Experiments:
Format in all cases: cell-based
[1] = target: T1, human TASK-2 K+ channel, SEQ ID NO: 28 (Homo sapiens, UniProt O95279); test: TASK-2 currents elicited by voltage pulses to +50 mV, whole cell recording in transfected COS cells; details: 70 nM, activation of PKC
T1 construct: expressed in transfected cells; host or cells: COS cells transiently transfected with pIREScd8-TASK-2 (DEAE-dextran)
T1 sequence (O95279 1-499): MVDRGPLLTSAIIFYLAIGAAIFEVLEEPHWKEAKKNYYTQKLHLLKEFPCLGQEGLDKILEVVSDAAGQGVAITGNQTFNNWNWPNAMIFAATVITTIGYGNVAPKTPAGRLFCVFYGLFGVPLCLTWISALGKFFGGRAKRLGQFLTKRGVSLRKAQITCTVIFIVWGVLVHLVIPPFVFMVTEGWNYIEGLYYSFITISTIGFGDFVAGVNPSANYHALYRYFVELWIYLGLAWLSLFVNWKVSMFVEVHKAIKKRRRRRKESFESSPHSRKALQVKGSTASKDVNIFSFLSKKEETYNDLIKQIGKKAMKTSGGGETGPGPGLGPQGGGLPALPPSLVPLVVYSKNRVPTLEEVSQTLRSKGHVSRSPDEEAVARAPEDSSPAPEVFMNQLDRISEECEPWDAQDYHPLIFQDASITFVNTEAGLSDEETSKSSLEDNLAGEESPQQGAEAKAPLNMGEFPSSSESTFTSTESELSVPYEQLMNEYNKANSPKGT
Method: For patch clamp analyses, a NotI/EcoRI fragment of 3.2 kb was excised from pBS-TASK 2 and subcloned into the pIRES-CD8 vectorto givepIREScdB-TASK-2. ThepIRES-CD8 vector was obtained by replacing the neo^R gene in the original vector pIRESneo (Clontech) by the coding sequence of the T type lymphocyte's surface marker CD8. COS cells were seeded at a density of 20,000 cells per 35 mm dishes 24 h prior to transfection. Cells were then transiently transfected by the classical DEAE-dextian method with 1 µg of prREScdB-TASK-2 plasmid per 35 mm dish. Transiently-transfected cells were visualized 48 h after transfection using the anti-CD8 antibody coated beads method (24). For whole cell recordings, the internal solution contained 150 mM KCI, 3 mM MgCl2, 5 mM EGTA, and 10 mM HEPES at pH 7.2 with KOH, and he external solution 150 mM NaCl, 5 mM KCI, 3 mM MgCl2 1 mM CaCl2, 10 mM HEPES at pH 7.4 with NaOH.
The effects of various pharmacological agents on currents elicited by voltage pulses to +50 mV have been studied in TASK-2-exprcssing. COS cells.

[2] = system: human TWIK-1 K+ channel, mutation of the threonine 161 into alanine; test: Currents of mutated TWIK-1 channel in Xenopus oocytes; details: mutant Thr161 to Ala
Method: The TWIK-1 coding sequence was amplified using a low-error rate DNA polymerase (Pwo DNA pal, Boehringer) and subcloned in the plasmid pEXO so as to yield pEXO-TWIK-1. Mutations were performed using the whole plasmid pEXO-TWIK-1 with a highly reliable PCR extension kit (Boehringer) and two adjacent primers. One of these introduced a punctiform mutation in the IINIK-1 coding sequence, changing the 161 Thr codon into a codon for alanine. The product of the PCR was linearized by the enzyme BamHI and the cRNA were synthesized using a T7 RNA polymerase (Stratagene). Preparation of the X. larvis oocytes and cRNA injection were carried out in accordance with the literature (Guillemare, E. et al., 1992, Biochemistry. 31, 1246312468,
(§1) Phosphorylation or dephosphorylation of specific amino acid residues is an important mechanism of regulation of the ionic channels (Levitan, I. B., 1994, Annul Rev. Physiol., 56, 193-212).

[3] = target: human TASK1 K+ channel, SEQ ID NO: 4 (Homo sapiens, UniProt O14649); test: TASK1 currents elicited by voltage pulses to +50 mV, two-electrode voltage clamp in Xenopus oocytes; details: 40 nM, activation of protein kinase C
Method: For functional studies, TASK1 cRNAs were injected into Xenopus oocytes. This was accomplished by subcloning a 2480 bp SmaI/XhoI fragment from pBS-hT ASK containing 14 bp of 5' UTR, the coding sequence and the entire 3' UTR into the pEXO vector (Lingueglia et al., 1993) to give pEXO-TASK1. Capped-cRNAs were synthesised in vitro from the linearized plasmid by using the T7 RNA polymerase (Stratagene). Xenopus laevis were purchased from CRBM (Montpellier, France). Preparation and cRNA injection of oocytes has been described elsewhere (Guillemare et al., 1992). Oocytes were used for electrophysiological studies 2 to 4 days following injection (20 ng/oocyte). In a 0.3 ml perfusion chamber, a single oocyte was impaled with two standard microelectrodes (1-2.5 Mn resistance) filled with 3 M KCI and maintained under voltage clamp by using a Dagan TEV 200 amplifier, in standard ND96 solution (96 mM NaC1. 2 mM KCI, 1.8 mM CaCI2, 2 mM MgCl2, 5 mM HEPES, pH 7.4 with NaOH). In some experiments, NaCl was substituted with TMA Cl (Tetra Methyl Ammonium Chloride). Stimulation of the preparation, data acquisition, and analysis were performed using pClamp software (Axon instruments, USA). Drugs were applied externally by addition to the superfusate (flow rate: 3 ml/min) or intracellularly injected by using a pressure microinjector (Inject+Matic, Switzedand). All experiments were performed at room temperature (21-22 °C).
Figure 12A presents the I-V relationships of the current in K^+-rich solutions ranging from 2 mM to 98 mM. […] The theoretical I-V relationships in various [K^+]out calculated according to the Goldman-Hodgkin-Katz current equation are shown in Figure 12D. […] The effect of various pharmacological agents on currents elicited by voltage pulses to +50 mV has been studied in TASK1-expressing oocytes.

[4] = target: T2, human TWIK-1 K+ channel, SEQ ID NO: 2 (Homo sapiens, UniProt O00180); test: TWIK-1 K+ currents, two-electrode voltage clamp in Xenopus oocytes injected with TWIK-1 cRNA; details: 30 nM, activation of protein kinase C
T2 construct: expressed in transfected cells; host or cells: Xenopus laevis oocytes injected with cRNA transcribed from pEXO-TWIK-1
T2 sequence (O00180 1-336): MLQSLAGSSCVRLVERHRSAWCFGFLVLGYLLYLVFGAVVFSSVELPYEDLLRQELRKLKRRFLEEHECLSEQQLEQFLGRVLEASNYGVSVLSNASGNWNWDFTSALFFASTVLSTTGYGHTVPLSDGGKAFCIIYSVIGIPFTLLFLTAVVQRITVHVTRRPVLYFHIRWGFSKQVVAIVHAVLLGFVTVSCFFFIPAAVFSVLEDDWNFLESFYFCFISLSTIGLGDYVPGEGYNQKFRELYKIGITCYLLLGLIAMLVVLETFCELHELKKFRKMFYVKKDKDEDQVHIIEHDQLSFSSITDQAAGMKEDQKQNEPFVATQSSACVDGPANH
Method: For the functional study, the coding sequence of TWIK-1 was inserted between the noncoding sequences 5' and 3' of Xenopus globin in the vector pEXO (Lingueglia, E. et al., 1993, J. Biol. Chem., 269, 13736-13739). A complementary RNA (cRNA) was transcribed of this construction and injected in the oocytes of X laevis. In a 0.3ml perfusion chamber, a single oocyte was impaled on two standard glass microelectrodes (0.5 - 2.0 MW) charged with 3 M KCI and maintained under voltage-clamp with a Dagan TEV200 amplifier. The bath solution contained 98 mM KCl,1.8 raM CaCl2 […] and 5 mM HEPES at pH 7.4 with KOH. Stimulation of the preparation, data acquisition and analyses were carried out with the pClamp program (Axon Instruments) USA3.
Intracellular acidification of the oocytes was produced using two methods: • superfusion with a solution enriched in CO2 which produces acidification by a mechanism involving the bicarbonate transport system (Guillemare, E. et al., 1995, Mol. Pharmacol., 47, 588-594); • treatment with dinitrophenol (DNP), which is a metabolic inhibitor that decouples the H+ gradient in mitochondria and induces internal acidity (Pedersen, P. L. and Carafoli, E., 1997, Trends Biol. Sci., 12, 146-189).
as §1

human TASK1 K+ channel, SEQ ID NO: 4, sequence (O14649 whole entry, the tested form may be a part): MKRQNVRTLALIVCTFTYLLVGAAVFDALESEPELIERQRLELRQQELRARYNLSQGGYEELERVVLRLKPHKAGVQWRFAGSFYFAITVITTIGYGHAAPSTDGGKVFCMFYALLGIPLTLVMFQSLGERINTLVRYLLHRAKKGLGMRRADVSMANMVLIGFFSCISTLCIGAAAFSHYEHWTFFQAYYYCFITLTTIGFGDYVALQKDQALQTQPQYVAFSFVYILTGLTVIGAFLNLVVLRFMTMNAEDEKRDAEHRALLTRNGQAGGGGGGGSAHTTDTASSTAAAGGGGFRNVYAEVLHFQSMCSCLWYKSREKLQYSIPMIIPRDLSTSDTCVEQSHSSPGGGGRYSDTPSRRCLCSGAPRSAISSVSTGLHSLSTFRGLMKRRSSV

Structure (SMILES): CCCCCCCCCCCCCC(=O)O[C@@H]1[C@@H](C)[C@@]2(O)[C@@H](C=C(CO)C[C@]3(O)C(=O)C(C)=C[C@@H]23)[C@@H]2C(C)(C)[C@]12OC(C)=O [PMA, phorbol-12 myristate acetate]
- sensitivity of TASK-2 currents [1]: insensitive
- activation by PMA [2]: conserves the capacity to be activated
- sensitivity of TASK1 currents [3]: insensitive
- effect on TWIK-1 currents [4]: increases

— patent EP1129187B1, “NEW FAMILY OF MAMMALIAN POTASSIUM CHANNELS, THEIR CLONING AND THEIR USE, ESPECIALLY FOR THE SCREENING OF DRUGS” (CENTRE NATIONAL DE LA RECHERCHE SCIENTIFIQUE (CNRS), priority 1998, dated 2000)
